The target in data set [1] is T1, rat-derived α2,3-N-sialyltransferase (Rattus norvegicus, UniProt Q02734).
T1 construct: purchased Calbiochem
T1 sequence (Q02734 1-374): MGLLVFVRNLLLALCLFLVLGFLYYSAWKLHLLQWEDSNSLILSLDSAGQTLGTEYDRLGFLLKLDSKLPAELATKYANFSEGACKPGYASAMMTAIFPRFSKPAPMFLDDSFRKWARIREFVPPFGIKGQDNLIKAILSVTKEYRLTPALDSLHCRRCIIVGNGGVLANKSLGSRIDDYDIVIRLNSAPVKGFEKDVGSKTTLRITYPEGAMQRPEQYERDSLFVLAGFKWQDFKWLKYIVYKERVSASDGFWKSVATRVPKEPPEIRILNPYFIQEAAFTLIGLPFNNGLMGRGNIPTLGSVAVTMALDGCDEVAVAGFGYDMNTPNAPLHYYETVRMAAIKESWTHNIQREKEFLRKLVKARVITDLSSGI
The data set is described as follows: Kinetic analysis of α2,3-sialyltransfer reaction to 4MU-4F-LacNAc. The class given is biochemical. The following applies: for Activity: α2,3-sialyltransferase. The method, then: (§1) The mixture was allowed to react at 25° C.
Precisely 60 minutes after initiation of the reaction, the reaction was terminated through addition of 80% acetonitrile (4 times in volume) and vigorous stirring. The reaction mixture was diluted, and the diluted product was analyzed through HPLC. […] Note that “1U” was defined as an enzyme amount which realizes sialylated sugar to form in an amount of 1 μmol/min under the above conditions.
The mixture was allowed to react at 25° C. for eight minutes.

The target in data set [2] is T2, rat-derived α2,6-N-sialyltransferase (Rattus norvegicus, UniProt P13721).
T2 construct: purchased Calbiochem
T2 sequence (P13721 1-403): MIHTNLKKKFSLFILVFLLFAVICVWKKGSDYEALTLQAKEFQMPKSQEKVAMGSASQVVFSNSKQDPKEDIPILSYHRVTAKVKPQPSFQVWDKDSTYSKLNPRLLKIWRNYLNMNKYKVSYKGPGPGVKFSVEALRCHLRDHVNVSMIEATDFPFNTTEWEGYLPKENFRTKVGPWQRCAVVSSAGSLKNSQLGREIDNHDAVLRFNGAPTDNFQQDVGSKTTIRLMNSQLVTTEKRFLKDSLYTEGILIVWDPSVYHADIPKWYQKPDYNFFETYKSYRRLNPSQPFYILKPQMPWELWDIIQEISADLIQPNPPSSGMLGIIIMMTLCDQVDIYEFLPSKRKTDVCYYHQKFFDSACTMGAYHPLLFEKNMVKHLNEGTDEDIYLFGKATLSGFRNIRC
The data set is described as follows: Kinetic analysis of α2,6-sialyltransfer reaction to 4MU-4F-LacNAc. The format is biochemical. As to conditions: for Activity: α2,6-sialyltransferase. How it is done: as §1
Precisely 120 minutes after initiation of the reaction, the reaction was terminated through addition of 1M NaOH (⅕ times in volume). The reaction mixture was neutralized and diluted with an HPLC eluent, and the diluted product was analyzed through HPLC. […] Note that “1U” was defined as an enzyme amount which realizes formation of sialylated sugar in an amount of 1 μmol/min under the above conditions.
The mixture was allowed to react at 25° C. for 10 minutes.
The enzymatic activity values at respective concentrations are compared.

Substrate in data set [3]: CC(=O)NC1C(O)[C@H](O[C@@H]2OC(CO)[C@H](O)[C@H](O)C2O)[C@H](CO)O[C@H]1Oc1ccc2c(C)cc(=O)oc2c1
The data set is described as follows: purified protein, by the assay type. As to conditions: 25° C., pH 7.5.

Substrate in data set [4]: CC(=O)NC1C(O)[C@H](O[C@@H]2OC(CO)[C@H](F)[C@H](O)C2O)[C@H](CO)O[C@H]1Oc1ccc2c(C)cc(=O)oc2c1
Put plainly: purified protein, by the assay type. The following applies: other: 1/[S]-1/v plotting, 200 μM CMP-NeuAc, 25° C., pH 7.5.

[5] abbreviates: other: rat-derived α2,6-sialyltransferase 40 mU/mL, 10 minutes, 1/[S]-1/v plotting.
The mark [6] stands for this setting: other: 1/[S]-1/v plotting, 200 μM CMP-NeuAc.

For orientation: Km means the concentration of substrate that gives half-maximal velocity. Usually Vmax stands for the top rate of the reaction or transport when substrate is in excess.

Consider `CC(=O)NC1C(O)[C@H](O[C@@H]2OC(CO)[C@H](F)[C@H](O)C2O)[C@H](CO)O[C@H]1Oc1ccc2c(C)cc(=O)oc2c1` (some centres unmarked) [4MU-4F-LacNAc, 4-methylumbelliferyl 4F—N-acetyllactosamine], for which the “catalytic efficiency of α2,3-sialyltransferase relative to that with respect to 4MU-LacNAc” value in data set [1] (compared with 4MU-LacNAc) is on record as at most 6%. Moreover, the Activity in data set [1] (acceptor concentration 20 μM) is 0.9972 mU/mL; in data set [1] (acceptor concentration 40 μM), 1.756 mU/mL; in data set [1] (acceptor concentration 80 μM) it was 3.214 mU/mL; in data set [1] (acceptor concentration 150 μM) it was 4.541 mU/mL; in data set [2] (acceptor concentration 20 μM), 0.07743 mU/mL; in data set [2] (acceptor concentration 40 μM) it was 0.1561 mU/mL. Also, the Activity in data set [2] (acceptor concentration 80 μM) is listed as 0.3223 mU/mL; in data set [2] (acceptor concentration 120 μM), 0.4596 mU/mL; in data set [2] (acceptor concentration 150 μM), 0.6348 mU/mL. In addition, the “sialyltransferase activity of α2,6-sialyltransferase with respect to acceptor” value in data set [2] (compared with 4MU-LacNAc at respective concentrations) is “clearly decreased”.

As for `CC(=O)NC1C(O)[C@H](O[C@@H]2OC(CO)[C@H](O)[C@H](O)C2O)[C@H](CO)O[C@H]1Oc1ccc2c(C)cc(=O)oc2c1` (some centres unmarked) [4MU-LacNAc, reference compound], the Activity in data set [1] (acceptor concentration 20 μM) came to 16.20 mU/mL; in data set [1] (acceptor concentration 40 μM) it was 28.50 mU/mL; in data set [1] (acceptor concentration 80 μM), 45.36 mU/mL; in data set [1] (acceptor concentration 150 μM), 66.23 mU/mL; in data set [2] (acceptor concentration 20 μM), 0.8800 mU/mL; in data set [2] (acceptor concentration 40 μM), 1.667 mU/mL. Also, the results for the Activity in data set [2] (acceptor concentration 80 μM), in data set [2] (acceptor concentration 120 μM) and in data set [2] (acceptor concentration 150 μM) were 2.504 mU/mL, 3.734 mU/mL and 4.828 mU/mL, respectively.

B1: rat-derived α2,6-N-sialyltransferase (Rattus norvegicus) (protein)
chain: T2 sequence (P13721 1-403)
Regarding B1, in data set [3] (setting [5]), the Km worked out at 217 µM and the maximal velocity (Vmax) was 65.24 nmol/min/mg.

B2: rat-derived α2,3-N-sialyltransferase (Rattus norvegicus) (protein)
chain: T1 sequence (Q02734 1-374)
As for B2, in data set [4], the Km is 188 µM and the Vmax was found to be 12.60 nmol/min/mg. For the same molecule, in data set [3] (setting [6]), the Km is 129 µM and the Vmax came to 146.9 nmol/min/mg.

The values above are taken from US8148112B2, “Sugar chain containing 4-position halogenated galactose and application thereof” (National University Corporation Hokkaido University, priority 2005, dated 2012).
